{
  "source": "patent US5395947A",
  "about": "“Platinum(II) complex and processes for preparing the same” (Sunkyong Industries, Ltd., priority 1991, dated 1995)",
  "key": {"[1]": {"test": "Test for water solubility", "type": "physicochemical", "settings": "water", "description": "3. Test for water solubility\nA standard plot of UV absorbance(220 nm) vs. concentration was made; and employed to determine water-solubility.\nThe mixture was then passed through a 0.45 micron disposable membrane filter before dilution and UV measurement."}, "murine leukemia L1210": {"tested_on": "murine leukemia L1210", "test": "Antitumor activity test on murine leukemia L1210 in vivo", "parameters": "species or system male BDF1 mice", "settings": "days 1, 5, 9", "in_short": "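Intraperitoneal L1210 model: 1×10^6 cells inoculated i.p. into 6-week-old male BDF1 mice (21±3 g) on day 0, seven per group. Compounds in 0.5% CMC given i.p. on days 1, 5 and 9; vehicle-only controls. T/C % from mean survival time of treated over control.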"}, "ICR mice": {"tested_on": "ICR mice", "test": "Acute toxicity test", "type": "in vivo", "parameters": "Lethality: unit not given here", "settings": "for Lethality: 10080 min", "in_short": "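Male and female 7-week-old ICR mice, 6 per group, dosed intraperitoneally. Signs and survival followed for 7 days, with autopsy of animals that died.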"}, "[2]": {"tested_on": "murine leukemia L1210 cells", "test": "Growth inhibition test on cultured murine leukemia L1210 cells", "type": "cell-based", "settings": "48 hours, 37° C., Trypan blue viability", "in_short": "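L1210 cells (1×10^5) exposed to graded compound concentrations in RPMI 1640 with 10% fetal calf serum, 37° C, 5% CO2, 48 h. Viability by 0.17% Trypan blue staining, relative to untreated control cells.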"}},
  "data": [
    {"smiles": "NC[C@H]1OC2(CCCC2)O[C@@H]1CN.O=C1C[O][Pt][O]1", "note": "[Example 3, (glycolato-O,O')[(4R,5R)-4,5-bis(aminomethyl)-1,3-dioxolane-2-spiro-1'-cyclopentane]platinum (II)]", "values": [
      {"measurement": "Solubility in water", "setting": "[1]", "value": 5800, "unit": "µg/mL"},
      {"measurement": "T/C (%)", "setting": "murine leukemia L1210; 3.1 mg/kg i.p.", "value": 154, "unit": "%"},
      {"measurement": "T/C (%)", "setting": "murine leukemia L1210; 6.2 mg/kg i.p.", "value": 161, "unit": "%"},
      {"measurement": "T/C (%)", "setting": "murine leukemia L1210; 12.5 mg/kg i.p.", "value": 295, "unit": "%"},
      {"measurement": "T/C (%)", "setting": "murine leukemia L1210; 25 mg/kg i.p.", "value": "toxic"},
      {"measurement": "T/C (%)", "setting": "murine leukemia L1210; 50 mg/kg i.p.", "value": "toxic"},
      {"measurement": "Number of dead mice for 7 days", "setting": "ICR mice; female, 25.0 mg/kg i.p.", "value": "0/6"},
      {"measurement": "Number of dead mice, 1st day", "setting": "ICR mice; female, 25.0 mg/kg i.p.", "value": "0/6"},
      {"measurement": "Number of dead mice for 7 days", "setting": "ICR mice; female, 32.5 mg/kg i.p.", "value": "0/6"},
      {"measurement": "Number of dead mice, 1st day", "setting": "ICR mice; female, 32.5 mg/kg i.p.", "value": "0/6"},
      {"measurement": "Number of dead mice for 7 days", "setting": "ICR mice; female, 42.3 mg/kg i.p.", "value": "2/6"},
      {"measurement": "Number of dead mice, 1st day", "setting": "ICR mice; female, 42.3 mg/kg i.p.", "value": "0/6"},
      {"measurement": "Number of dead mice, 4th day", "setting": "ICR mice; female, 42.3 mg/kg i.p.", "value": "1/6"},
      {"measurement": "Number of dead mice, 5th day", "setting": "ICR mice; female, 42.3 mg/kg i.p.", "value": "1/5"},
      {"measurement": "Lethality", "setting": "ICR mice; female, 42.3 mg/kg i.p.", "value": 33.3},
      {"measurement": "Number of dead mice for 7 days", "setting": "ICR mice; female, 55.0 mg/kg i.p.", "value": "5/6"},
      {"measurement": "Number of dead mice, 1st day", "setting": "ICR mice; female, 55.0 mg/kg i.p.", "value": "0/6"},
      {"measurement": "Number of dead mice, 3rd day", "setting": "ICR mice; female, 55.0 mg/kg i.p.", "value": "4/6"},
      {"measurement": "Number of dead mice, 4th day", "setting": "ICR mice; female, 55.0 mg/kg i.p.", "value": "1/2"},
      {"measurement": "Lethality", "setting": "ICR mice; female, 55.0 mg/kg i.p.", "value": 83.2},
      {"measurement": "Number of dead mice for 7 days", "setting": "ICR mice; female, 71.4 mg/kg i.p.", "value": "6/6"},
      {"measurement": "Number of dead mice, 1st day", "setting": "ICR mice; female, 71.4 mg/kg i.p.", "value": "0/6"},
      {"measurement": "Number of dead mice, 3rd day", "setting": "ICR mice; female, 71.4 mg/kg i.p.", "value": "4/6"},
      {"measurement": "Number of dead mice, 4th day", "setting": "ICR mice; female, 71.4 mg/kg i.p.", "value": "2/2"},
      {"measurement": "Lethality", "setting": "ICR mice; female, 71.4 mg/kg i.p.", "value": 100.0},
      {"measurement": "Number of dead mice for 7 days", "setting": "ICR mice; male, 25.0 mg/kg i.p.", "value": "0/6"},
      {"measurement": "Number of dead mice, 1st day", "setting": "ICR mice; male, 25.0 mg/kg i.p.", "value": "0/6"},
      {"measurement": "Number of dead mice for 7 days", "setting": "ICR mice; male, 32.5 mg/kg i.p.", "value": "0/6"},
      {"measurement": "Number of dead mice, 1st day", "setting": "ICR mice; male, 32.5 mg/kg i.p.", "value": "0/6"},
      {"measurement": "Number of dead mice, 4th day", "setting": "ICR mice; male, 32.5 mg/kg i.p.", "value": "1/6"},
      {"measurement": "Number of dead mice for 7 days", "setting": "ICR mice; male, 42.3 mg/kg i.p.", "value": "2/6"},
      {"measurement": "Number of dead mice, 1st day", "setting": "ICR mice; male, 42.3 mg/kg i.p.", "value": "0/6"},
      {"measurement": "Number of dead mice, 4th day", "setting": "ICR mice; male, 42.3 mg/kg i.p.", "value": "1/6"},
      {"measurement": "Lethality", "setting": "ICR mice; male, 42.3 mg/kg i.p.", "value": 33.3},
      {"measurement": "Number of dead mice for 7 days", "setting": "ICR mice; male, 55.0 mg/kg i.p.", "value": "6/6"},
      {"measurement": "Number of dead mice, 1st day", "setting": "ICR mice; male, 55.0 mg/kg i.p.", "value": "0/6"},
      {"measurement": "Number of dead mice, 3rd day", "setting": "ICR mice; male, 55.0 mg/kg i.p.", "value": "4/6"},
      {"measurement": "Number of dead mice, 4th day", "setting": "ICR mice; male, 55.0 mg/kg i.p.", "value": "1/2"},
      {"measurement": "Number of dead mice, 5th day", "setting": "ICR mice; male, 55.0 mg/kg i.p.", "value": "1/1"},
      {"measurement": "Lethality", "setting": "ICR mice; male, 55.0 mg/kg i.p.", "value": 100.0},
      {"measurement": "Number of dead mice for 7 days", "setting": "ICR mice; male, 71.4 mg/kg i.p.", "value": "6/6"},
      {"measurement": "Number of dead mice, 1st day", "setting": "ICR mice; male, 71.4 mg/kg i.p.", "value": "0/6"},
      {"measurement": "Number of dead mice, 3rd day", "setting": "ICR mice; male, 71.4 mg/kg i.p.", "value": "4/6"},
      {"measurement": "Number of dead mice, 4th day", "setting": "ICR mice; male, 71.4 mg/kg i.p.", "value": "2/2"},
      {"measurement": "Lethality", "setting": "ICR mice; male, 71.4 mg/kg i.p.", "value": 100.0},
      {"measurement": "IC50 (concentration required for 50% inhibition of growth)", "setting": "[2]", "value": 0.10, "unit": "µg/mL"}
    ]}
  ]
}
